Key:
Phosphodiesterase 4 [1] = target: T1, Phosphodiesterase 4 (Homo sapiens, UniProt P27815+Q08499+Q07343+Q08493); experiment: Inhibition of Phosphodiesterase 4 from human neutrophils; assay type: protein assay
Canis familiaris = experiment: Emetic effect in dogs after intravenous dose; assay type: functional; conditions: Canis lupus familiaris
Rattus norvegicus = species: Rattus norvegicus; experiment: Increased acid secretion in isolated whole rat stomach; assay type: functional
Homo sapiens = species: Homo sapiens; experiment: Inhibition of TNF alpha synthesis in human monocytes; assay type: functional
Phosphodiesterase 4 [2] = target: T1, Phosphodiesterase 4; experiment: Inhibition of rolipram binding to PDE4 from human neutrophils; assay type: protein assay
Phosphodiesterase 4 [3] = target: T1, Phosphodiesterase 4; experiment: Inhibition of Phosphodiesterase 4 from human neutrophils at 10e-7 M; assay type: protein assay

Row | SMILES | IC50 (Phosphodiesterase 4 [1]) [nM] | ED50 (Canis familiaris) [µmol/kg] | IC50 (Rattus norvegicus) [nM] | IC50 (Homo sapiens) [nM] | Ki (Phosphodiesterase 4 [2]) [nM] | inhibition (Phosphodiesterase 4 [3]) [%]
1 | COc1cc2cnnc(Cc3c(Cl)cncc3Cl)c2cc1OC1CCCC1 | 186 | – | – | – | – | –
2 | COc1ccc(C2CNC(=O)C2)cc1OC1CCCC1 (centres undefined) [ROLIPRAM] | – | 0.3 | 40 | 225 | – | –
3 | COc1ccc2c(Nc3c(Cl)cncc3Cl)nncc2c1OC1CCCC1 | 59 | – | – | 187 | 95 | –
4 | COc1ccc2c(Cc3c(Cl)cncc3Cl)nncc2c1C#CCCCc1ccccc1 | 10 | – | – | 30 | 71 | –
5 | COc1ccc2c(Cc3c(Cl)cncc3Cl)nncc2c1/C=C/CCCc1ccccc1 | 19 | – | – | 52 | 164 | –
6 | COc1cc2cnnc(Nc3c(Cl)cncc3Cl)c2cc1OC1CCCC1 | – | – | – | – | – | 7
7 | COc1ccc2c(Cc3c(Cl)cncc3Cl)nncc2c1CCCCCc1ccccc1 | 30 | – | – | 103 | 320 | –
8 | COc1ccc2c(Cc3c(Cl)cncc3Cl)nncc2c1OC1CCCC1 | 53 | > 10 | 7000 | 254 | 149 | –
9 | COc1ccc2c(Cc3c(Cl)cncc3Cl)nncc2c1OC1CCOC1 (centres undefined) | 153 | – | – | – | 286 | –
10 | COc1ccc2c(Cc3c(Cl)cncc3Cl)nncc2c1OC1Cc2ccccc2C1 | 30 | – | – | 252 | 16 | –
11 | COc1ccc2c(Cc3c(Cl)cncc3Cl)nncc2c1OCCCCCc1ccccc1 | 57 | – | – | 83 | 13 | –
12 | FC(F)Oc1ccc2c(Cc3c(Cl)cncc3Cl)nncc2c1OC1CCCC1 | 39 | – | – | 167 | 46 | –
13 | COc1ccc(C(=O)Nc2c(Cl)cncc2Cl)cc1OC1CCCC1 | – | 1 | 70 | 1.3 | – | –
14 | COc1ccc2c(Cc3c(Cl)cncc3Cl)n[n+]([O-])cc2c1OC1CCCC1 | 42 | – | – | 139 | 121 | –
